Results from patent publication US20260285853A1, “COMPOUNDS AND METHODS FOR MODULATING SPLICING” (REMIX THERAPEUTICS INC., priority 2023, published 2026).
Where two headings read alike, the source gives them in different places.

How the values were obtained:
Assay type in all cases: cell-based
MYB mRNA [1] = experiment: Splicing RT-qPCR assay (THP), Table 2A
[2] = system: SH-SY5Y (human neuroblastoma) cells; experiment: Cell viability, Cell Titer Glo 2.0 assay; conditions: read-out: Viability SHSY5Y.3 GI50
How it was run: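 Viability was read by CellTiter-Glo 2.0 luminescence after a 72-hour compound exposure at 37° C. under 5% CO2. Cells were in IMDM plus 10% FBS containing 0.1% DMSO, and medium-only wells gave the blank.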

HTT mRNA [3] = experiment: Gene panel canonical junction qPCR assay, decrease in CJ mRNA, Table 3
How it was run: (§1)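 IC50 denotes the concentration giving 50% decrease in canonical-junction mRNA, fitted by 4-parameter logistic to percentage response derived from ΔΔCt versus housekeeping gene and DMSO control. Cells (A673 or K562) exposed 24 h to 11-point 3-fold serial dilutions from 10 uM top, DMSO ≤0.25%; junction-spanning primer/probe qPCR.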

MYB mRNA [4] = experiment: as above
How it was run: as §1

HTT mRNA [5] = experiment: Splicing RT-qPCR assay (THP), Table 2A
[6] = Table 2A, THP, MYB alternative junction (AJ) mRNA, read-out: MYB AJ (AC50, increase in alternative junction mRNA)
[7] = Table 2A, THP, MYB canonical junction (CJ) mRNA, read-out: MYB CJ (IC50, decrease in canonical junction mRNA)
[8] = decrease in CJ mRNA levels, canonical junction qPCR, gene panel
[9] = Table 2A, THP, HTT alternative junction (AJ) mRNA, read-out: HTT AJ (AC50, increase in alternative junction mRNA)
[10] = Table 2A, THP, HTT canonical junction (CJ) mRNA, read-out: HTT CJ (IC50, decrease in canonical junction mRNA)
[11] = Table 2A (THP), AJ mRNA increase, read-out: MYB AJ (increase in alternative junction mRNA, AC50)
[12] = Table 2A (THP), CJ mRNA decrease, read-out: MYB CJ (decrease in canonical junction mRNA, IC50)
[13] = decrease in canonical junction (CJ) mRNA, gene panel qPCR, Table 3
[14] = Table 2A (THP), AJ mRNA increase, read-out: HTT AJ (increase in alternative junction mRNA, AC50)
[15] = Table 2A (THP), CJ mRNA decrease, read-out: HTT CJ (decrease in canonical junction mRNA, IC50)

SMILES | IC50 (MYB mRNA [1]; [7]) [µM] | GI50 [2] [µM] | IC50 (HTT mRNA [3]; [8]) [µM] | IC50 (MYB mRNA [4]; [8]) [µM] | IC50 (HTT mRNA [5]; [10]) [µM] | IC50 (MYB mRNA [1]; [12]) [µM] | IC50 (HTT mRNA [3]; [13]) [µM] | IC50 (MYB mRNA [4]; [13]) [µM] | IC50 (HTT mRNA [5]; [15]) [µM] | AC50 (MYB mRNA [1]; [6]) [µM] | AC50 (HTT mRNA [5]; [9]) [µM] | AC50 (MYB mRNA [1]; [11]) [µM] | AC50 (HTT mRNA [5]; [14]) [µM]
COc1nc2c(C(=O)Nc3ccc(=O)n(C)c3)ccc(N3C[C@H](C)N[C@@H](C)C3)c2s1 [Compound 730, 7-((3S,5S)-3,5-dimethylpiperazin-1-yl)-2-methoxy-N-(1-methyl-6-oxo-1,6-dihydropyridin-3-yl)benzo[d]thiazole-4-carboxamide 2,2,2-trifluoroacetate] | 0.1 to 1 | 1 to 10 | > 10 | 0.1 to 1 | > 10 | – | – | – | – | 0.1 to 1 | > 10 | – | –
COc1cc2c(N3C[C@H](C)N[C@@H](C)C3)ccc(C(=O)Nc3cc(F)c4nn(C)cc4c3)c2o1 [Compound 790] | < 0.1 | 0.1 to 1 | 1 to 10 | < 0.1 | 1 to 10 | – | – | – | – | < 0.1 | 0.1 to 1 | – | –
CNC1CCC(Oc2ccc(C(=O)Nc3cn4cc(C)nc(C)c4n3)c3nn(C)cc23)C1 (stereo not shown) [Compound 594] | – | > 10 | – | – | – | > 10 | > 10 | > 10 | > 10 | – | – | > 10 | > 10
COc1c(NC(=O)c2cc(F)c(N3CCC(NC4CC4)CC3)c3cn(C)nc23)cn2cc(C)nc2c1F [Compound 709] | 0.1 to 1 | 1 to 10 | 1 to 10 | 0.1 to 1 | 1 to 10 | – | – | – | – | 0.1 to 1 | 1 to 10 | – | –
CCOc1cc2nc(C)cn2cc1NC(=O)c1c(F)cc(N2CCC(NC3CC3)CC2)c2cn(C)nc12 [Compound 406, 4-[4-(cyclopropylamino)-1-piperidyl]-N-(7-ethoxy-2-methyl-imidazo[1,2-a]pyridin-6-yl)-6-fluoro-2-methyl-indazole-7-carboxamide] | – | 0.1 to 1 | – | – | – | 0.1 to 1 | 1 to 10 | 0.1 to 1 | 1 to 10 | – | – | 0.1 to 1 | 1 to 10
COc1nc2c(C(=O)Nc3cc(C)c4nn(C)cc4c3OC)ccc(N3C[C@H](C)N[C@@H](C)C3)c2s1 [Compound 717, 7-[(3S,5S)-3,5-dimethylpiperazin-1-yl]-2-methoxy-N-(4-methoxy-2,7-dimethyl-indazol-5-yl)-1,3-benzothiazole-4-carboxamide] | > 10 | 1 to 10 | 1 to 10 | > 10 | 1 to 10 | – | – | – | – | > 10 | > 10 | – | –
C[C@H]1CN(c2ccc(C(=O)Nc3cc(F)c4nn(C)cc4c3)c3nn(C)cc23)C[C@H](C)N1 [Compound 584, 4-[(3S, 5S)-3,5-dimethylpiperazin-1-yl]-N-(7-fluoro-2-methyl-indazol-5-yl)-2-methyl-indazole-7-carboxamide] | – | 0.1 to 1 | – | – | – | < 0.1 | 1 to 10 | < 0.1 | 1 to 10 | – | – | < 0.1 | 1 to 10

Further lines, with some results ahead:

IC50 (MYB mRNA [1]; [7]) [µM] | GI50 [2] [µM] | IC50 (HTT mRNA [3]; [8]) [µM] | IC50 (MYB mRNA [4]; [8]) [µM] | IC50 (HTT mRNA [5]; [10]) [µM] | IC50 (MYB mRNA [1]; [12]) [µM] | IC50 (HTT mRNA [3]; [13]) [µM] | IC50 (MYB mRNA [4]; [13]) [µM] | IC50 (HTT mRNA [5]; [15]) [µM] | SMILES | AC50 (MYB mRNA [1]; [6]) [µM] | AC50 (HTT mRNA [5]; [9]) [µM] | AC50 (MYB mRNA [1]; [11]) [µM] | AC50 (HTT mRNA [5]; [14]) [µM]
0.1 to 1 | 1 to 10 | > 10 | 0.1 to 1 | > 10 | – | – | – | – | C=CCNC1CCN(c2ccc(C(=O)Nc3cc(CNS(C)(=O)=O)c4nc(C)cn4c3)c3nn(C)cc23)CC1 [Compound 836, 4-[4-(allylamino)-1-piperidyl]-N-[8-(methanesulfonamidomethyl)-2-methyl-imidazo[1,2-a]pyridin-6-yl]-2-methyl-indazole-7-carboxamide] | 0.1 to 1 | > 10 | – | –
– | > 10 | – | – | – | > 10 | > 10 | > 10 | > 10 | COc1cc2nn(C)cc2cc1NC(=O)c1ccc(N2CCC(N3CCNCC3)C2)c2cn(C)nc12 (stereo not shown) [Compound 539] | – | – | > 10 | 1 to 10
– | 0.1 to 1 | – | – | – | 0.1 to 1 | 0.1 to 1 | 0.1 to 1 | 0.1 to 1 | COc1c(NC(=O)c2ccc(N3CCC(NC4CC4)CC3)c3cn(C)nc23)cc2cn(C)nc2c1Cl [Compound 461, N-(7-chloro-6-methoxy-2-methyl-indazol-5-yl)-4-[4-(cyclopropylamino)-1-piperidyl]-2-methyl-indazole-7-carboxamide] | – | – | 0.1 to 1 | 0.1 to 1
